From ChEMBL document CHEMBL1145692, “New Type of Mono-tetrahydrofuran Ring Acetogenins from Goniothalamus donnaiensis” (J Nat Prod, 1997)

Key:
HCT-8 = assay: Cytotoxicity against human HCT8 cells; type: functional, cell-based
KB [1] = assay: Cytotoxicity against human KB cells; type: functional, cell-based
KB [2] = assay: Cytotoxicity against human KB cells at 10 ug/ml; type: functional

Structure (SMILES) | IC50 (HCT-8) | IC50 (KB [1]) | inhibition at 10 µg/mL (KB [2])
CCCCCCCCCCCC[C@@H](O)[C@H]1CC[C@H]([C@H](O)CCCCCCCCCC[C@@H](O)CC2=CC(C)(O)OC2=O)O1 (mixture of isomers) | < 10 µg/mL | < 1 µg/mL | 
CCCCCCCCCCCCCC[C@H](O)[C@@H](O)CC[C@H](O)[C@@H]1CC[C@@H](CCCCC[C@@H](O)CC2=CC(C)(O)OC2=O)O1 (mixture of isomers) [DONNAIENIN B/34-EPI-DONNAIENIN B] |  |  | 53.8%
